Data as given in patent US12433836B2, “Parenterally administered immune enhancing drugs” (ARCUS BIOSCIENCES, INC., priority 2018, dated 2025).
Like-named read-outs stand apart in the source and are kept apart here.

Legend:
[1] = Pharmacokinetics in preclinical species, summary across species; assay type: in vivo, mice, rats, dogs, monkeys; settings: single IV dose; for clearance (CL), in words: all preclinical species; for half-life: both sexes, CD-1 (mouse), Sprague-Dawley (rat), beagle (dog), mouse, rat, dog, cynomolgus monkey, plasma, range over preclinical species, read-out: terminal half-lives; for volume of distribution at steady state, in words: mice, rats and monkeys
Description: Plasma samples were prepared by protein precipitation. […] The mixture was vortexed and then centrifuged.
Compound 1 and Compound 2 volume of distribution at steady (Vu) was low in mice, rats and monkeys, but moderate-to-high in dogs. The terminal half-lives (Ti2) of Compound 1 and Compound 2 ranged from 3.5 to 41 hours, and 6.5 to 34 hours, respectively.

[2] = Pharmacokinetics after single IV bolus dose in mice
Description: (§1) At the designated time points, blood was collected into tubes containing potassium EDTA and stored on ice until processed by centrifugation. The resultant plasma was stored in a freezer maintained at approximately −80° C.
(§2) Plasma samples were prepared by protein precipitation. An aliquot of 30 to 50 μL sample was mixed with acetonitrile containing an internal standard. The mixture was vortexed and then centrifuged. The resultant supernatant was directly analyzed by a sensitive and specific analytical procedure. Analytes were separated by liquid chromatography (LC), and detected by tandem mass spectrometry (MS/MS). The lower limit of quantitation (LLOQ) was 1.0 to 5.0 ng/mL.

[3] = Pharmacokinetics after single IV bolus dose in rats
Description: as §1, §2

[4] = Pharmacokinetics after single IV bolus dose in dogs; settings: for CL: Dog, single dose IV bolus, mean noncompartmental; for volume of distribution at steady state, in words: dogs, single IV dose; for Vd / half-life: male, beagle, dog, iv
Description: as §1, §2

[5] = Pharmacokinetics after single IV bolus dose in monkeys
Description: as §1, §2

[6] = tested on: bladder cancer; settings: cited from earlier work
[7] = tested on: squamous cell carcinoma of the head and neck; settings: recurrent or metastatic squamous cell carcinoma of the head and neck; cited from earlier work
[8] = female, CD-1, mouse, plasma, iv
[9] = Rat, single dose IV bolus, mean noncompartmental
[10] = male, Sprague-Dawley, rat, plasma, iv
[11] = Monkey, single dose IV bolus, mean noncompartmental
[12] = male, cynomolgus monkey, plasma, iv
[13] = female, CD-1, mouse, in vivo, iv

C[C@H](Nc1cc(Cl)nc2c1cnn2[C@@H]1O[C@H](COP(=O)(O)CP(=O)(O)O)[C@@H](O)[C@H]1O)c1ccccc1F [Compound 1]
clearance (CL), in words [1]: low | half-life [1]: 210 to 2460 min | volume of distribution at steady state, in words [1]: low | CL ([2]; Mouse, single dose IV bolus, mean noncompartmental): 0.025 L/h/kg | Vd [2, 8]: 0.12 L/kg | half-life [2, 8]: 210 min | CL [3, 9]: 0.020 L/h/kg | T1/2 [3, 9]: 5.3 h | Vd [3, 10]: 0.12 L/kg | CL [4]: 0.050 L/h/kg | volume of distribution at steady state, in words [4]: moderate-to-high | Vd ([4]; plasma): 1.3 L/kg | half-life ([4]; plasma): 1260 min | CL [5, 11]: 2.5 mL/h/kg | Vd [5, 12]: 0.097 L/kg | half-life [5, 12]: 2460 min

C[C@H](Nc1cc(Cl)nc2c1cnn2[C@@H]1O[C@H](COP(=O)(O)CP(=O)(O)O)[C@@H](O)[C@H]1O)c1ccc(F)cc1 [Compound 2]
clearance (CL), in words [1]: low | half-life [1]: 390 to 2040 min | volume of distribution at steady state, in words [1]: low | Vd [2, 13]: 0.11 L/kg | clearance [2, 13]: 0.25 mL/min/kg | half-life [2, 13]: 390 min | T1/2 [3, 9]: 9.6 h | Vd ([3]; male, Sprague-Dawley, rat, in vivo, iv): 0.12 L/kg | clearance [3, 10]: 0.155 mL/min/kg | CL [4]: 0.034 L/h/kg | volume of distribution at steady state, in words [4]: moderate-to-high | Vd ([4]; in vivo): 0.63 L/kg | half-life ([4]; in vivo): 900 min | CL [5, 11]: 1.7 mL/h/kg | T1/2 [5, 11]: 34 h | Vd ([5]; male, cynomolgus monkey, in vivo, iv): 0.078 L/kg

atezolizumab: the first approved anti-PD-L1 therapy
response rate ([6]; all patients): 15% | response rate ([6]; patients with more PD-L1-positive immune cells): 27%

nivolumab: PD-1 blocking antibody
estimated 1-year survival rate versus standard chemotherapy [7]: more than two-fold higher
